Test results published in patent publication US20230012368A1 (Hoffmann-La Roche Inc., priority 2018, published 2023).
Counter-ions that a name gives are not always drawn.

System: Acinetobacter baumannii ATCC 17978
Assay: Antimicrobial susceptibility testing: 90% growth inhibitory concentration (IC90) determination
Assay type: cell-based
Conditions: 90% growth inhibitory concentration; Acinetobacter baumannii ATCC17978; Iso-Sensitest broth, OD 600 nm over 16h; read-out: ATCC17978 IC90
In short: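 Compounds serially twofold diluted (e.g. 50 to 0.097 μM final) in Iso-Sensitest broth, inoculated at ~5×10^(5) CFU/ml, incubated at 35±2° C. OD600 read every 20 minutes over 16h. IC90 taken as concentration inhibiting 90% of growth during logarithmic phase.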

Question: With Cc1cc(Nc2nccn3c(-c4ccc(OCC#N)c(F)c4F)cnc23)ccc1C(=O)NCCNC(=O)[C@@H]1CCNC[C@@H]1O [Example 451, (3R,4R)-N-[2-[[4-[[3-[4-(cyanomethoxy)-2,3-difluoro-phenyl]imidazo[1,2-a]pyrazin-8-yl]amino]-2-methyl-benzoyl]amino]ethyl]-3-hydroxy-piperidine-4-carboxamide; formic acid] as the molecule, how does the IC90 read?
Answer: 0.76 µM

Question: COc1ccc(-c2cnc3c(Nc4ccc(C(=O)NCCCCN)c(Cl)c4)nccn23)c(F)c1F [Example 515, N-(4-aminobutyl)-2-chloro-4-((3-(2,3-difluoro-4-methoxyphenyl)imidazo[1,2-a]pyrazin-8-yl)amino)benzamide hydrochloride] was tested. Which IC90 did it give?
Answer: 0.042 µM

Question: CCc1cc(Nc2nccn3c(-c4ccc(OC)c(F)c4F)cnc23)ccc1C(=O)NCC(=O)N(C)CCNC [Example 158, 4-((3-(2,3-difluoro-4-methoxyphenyl)imidazo[1,2-a]pyrazin-8-yl)amino)-2-ethyl-N-(2-(methyl(2-(methylamino)ethyl)amino)-2-oxoethyl)benzamide; formic acid] was tested. Which IC90 did it give?
Answer: 0.16 µM

Same assay, conditions: Acinetobacter baumannii, ATCC17978, 16 h, 90% growth inhibitory concentration; Acinetobacter baumannii ATCC17978; Iso-Sensitest broth, OD 600 nm over 16h; read-out: ATCC17978 IC90

Question: Cc1cc(Nc2nccn3c(-c4ccc(Cl)c(F)c4F)cnc23)ccc1C(=O)NCC1CCNCC1 [Example 253, 4-[[3-(4-chloro-2,3-difluorophenyl)imidazo[1,2-a]pyrazin-8-yl]amino]-2-methyl-N-(piperidin-4-ylmethyl)benzamide; hydrochlo-ride] was tested. Which IC90 did it give?
Answer: 2.9 µM

Question: For CCc1cc(Nc2nccn3c(-c4ccc(OC)c(F)c4F)cnc23)ccc1C(=O)N[C@H](C)CNC(=O)[C@@H](N)CCCCN [Example 465, N-[(1R)-2-[[(2S)-2,6-diaminohexanoyl]amino]-1-methyl-ethyl]-4-[[3-(2,3-difluoro-4-methoxy-phenyl)imidazo[1,2-a]pyrazin-8-yl]amino]-2-ethyl-benzamide], which IC90 is on record?
Answer: 0.3 µM

Question: With COc1ccc(-c2cnc3c(Nc4ccc(C(=O)N(C)CC5CCNCC5)c(Cl)c4)nccn23)cc1F [Example 205, 2-chloro-4-[[3-(3-fluoro-4-methoxyphenyl)imidazo[1,2-a]pyrazin-8-yl]amino]-N-methyl-N-(piperidin-4-ylmethyl)benzamide;hydrochlo-ride] as the molecule, how does the IC90 read?
Answer: 0.53 µM

Question: For CNC(=O)c1ccc(Nc2nccn3c(-c4ccc(OC)c(Cl)c4)cnc23)cc1C [Example 27, 4-((3-(3-chloro-4-methoxyphenyl)imidazo [1,2-a]pyrazin-8-yl)amino)-N,2-dimethylbenzamide], which IC90 is on record?
Answer: 0.19 µM

Question: With CCc1cc(Nc2nccn3c(-c4ccc(OC(F)F)c(F)c4F)cnc23)ccc1C(=O)NCCCCN [Example 94, N-(4-aminobutyl)-4-((3-(4-(difluoromethoxy)-2,3-difluorophenyl)imidazo [1,2-a]pyrazin-8-yl)amino)-2-ethylbenzamide hydrochloride] as the molecule, how does the IC90 read?
Answer: 0.28 µM

Question: Which IC90 does the source give for Cc1cc(Nc2nccn3c(-c4ccc(OC(F)F)cc4)cnc23)ccc1C(=O)NCC1(O)CCNCC1 [Example 261, 4-[[3-[4-(difluoromethoxy)phenyl]im-idazo[1,2-a]pyrazin-8-yl]amino]-N-[(4-hydroxypiperidin-4-yl)methyl]-2-methylbenzamide; hydrochlo-ride] here?
Answer: 4.9 µM

Question: For O=C(NCc1ccccn1)c1ccc(Nc2nccn3c(-c4ccc(OC(F)F)cc4)cnc23)cc1Cl [Example 111, 2-chloro-4-((3-(4-(difluoromethoxy)phenyl)imidazo[1,2-a]pyrazin-8-yl)amino)-N-(pyridin-2-ylmethyl)benzamide], which IC90 is on record?
Answer: 2.1 µM

Question: For CCc1cc(Nc2nccn3c(-c4ccc(OC)c(F)c4F)cnc23)ccc1C(=O)NC/C=C/CN [Example 536, N-[(E)-4-aminobut-2-enyl]-4-[[3-(2,3-difluoro-4-methoxyphenyl)imidazo[1,2-a]pyrazin-8-yl]amino]-2-ethylbenzamide], which IC90 is on record?
Answer: 0.024 µM

Question: How did the IC90 turn out when CCc1cc(Nc2nccn3c(-c4ccc(OCC#N)c(F)c4F)cnc23)ccc1C(=O)NCCNC(=O)[C@@H](N)CN [Example 145, 4-[[3-[4-(cyanomethoxy)-2,3-difluoro-phenyl]imidazo[1,2-a]pyrazin-8-yl]amino]-N-[2-[[(2S)-2,3-diaminopropanoyl]amino]ethyl]-2-ethyl-benzamide formate] was run?
Answer: 0.15 µM

Question: Which IC90 does the source give for CCc1cc(Nc2nccn3c(-c4ccc(OCC#N)c(F)c4F)cnc23)ccc1C(=O)NCCNC(=O)CCCN [Example 141, N-[2-(4-aminobutanoylamino)ethyl]-4-[[3-[4-(cyanomethoxy)-2,3-difluoro-phenyl]imidazo[1,2-a]pyrazin-8-yl]amino]-2-ethyl-benzamide formate] here?
Answer: 0.07 µM

Question: How did the IC90 turn out when Cc1cc(Nc2nccn3c(-c4ccc(OC(F)F)cc4)cnc23)ccc1C(=O)N(C)CCC1CCN(CCC(=O)O)CC1 [Example 150, 3-(4-(2-(4-((3-(4-(difluoromethoxy)phenyl)imidazo[1,2-a]pyrazin-8-yl)amino)-N,2-dimethylbenzamido)ethyl)piperidin-1-yl)propanoic acid] was run?
Answer: 0.65 µM

Question: For COc1ccc(-c2cnc3c(Nc4ccc(C(=O)NCCO)cc4)nccn23)cc1Cl [Example 243, 4-[[3-(3-chloro-4-methoxyphenyl)imidazo[1,2-a]pyrazin-8-yl]amino]-N-(2-hydroxyethyl)benzamide], which IC90 is on record?
Answer: 2.1 µM

Question: For COc1ccc(-c2cnc3c(Nc4ccc(C(=O)N[C@H](C)CNC(=N)C(C)C)c(Cl)c4)nccn23)c(F)c1F [Example 509, (R)-2-chloro-4-((3-(2,3-difluoro-4-methoxyphenyl)imidazo[1,2-a]pyrazin-8-yl)amino)-N-(1-isobutyrimidamidopropan-2-yl)benzamide], which IC90 is on record?
Answer: 0.11 µM

Question: How did the IC90 turn out when CCc1cc(Nc2nccn3c(-c4ccc(OC)c(F)c4F)cnc23)ccc1C(=O)N[C@H](C)C(=O)NCCNC [Example 566, 4-[[3-(2,3-difluoro-4-methoxy-phenyl)imidazo[1,2-a]pyrazin-8-yl]amino]-2-ethyl-N-[(1R)-1-methyl-2-[2-(methylamino)ethylamino]-2-oxo-ethyl]benzamide] was run?
Answer: 0.95 µM

Question: For CCc1cc(Nc2nccn3c(-c4ccc(OC)c(F)c4F)cnc23)ccc1C(=O)NCCNC(=O)[C@@H](N)CCCN [Example 397, N-[2-[[(2S)-2,5-diaminopentanoyl]amino]eth-yl]-4-[[3-(2,3-difluoro-4-methoxy-phenyl)imidazo[1,2-a]pyrazin-8-yl]amino]-2-ethyl-benzamide; formic acid], which IC90 is on record?
Answer: 0.41 µM

Question: Which IC90 does the source give for Cc1cc(Nc2nccn3c(-c4ccc(OC(F)F)cc4)cnc23)ccc1C(=O)NCCN [Example 266, N-(2-aminoethyl)-4-[[3-[4-(difluoromethoxy)phenyl]im-idazo[1,2-a]pyrazin-8-yl]amino]-2-methylbenzamide;hydrochlo-ride] here?
Answer: 5.1 µM

Question: For CCc1cc(Nc2nccn3c(-c4ccc(OC)cc4C(F)(F)F)cnc23)ccc1C(=O)NC [Example 537, 2-ethyl-4-[[3-[4-methoxy-2-(trifluoromethyl)phenyl]imid-azo[1,2-a]pyrazin-8-yl]amino]-N-methyl-benzamide], which IC90 is on record?
Answer: 0.207 µM

Question: Which IC90 does the source give for CCc1cc(Nc2nccn3c(-c4ccc(OC)c(F)c4F)cnc23)ccc1C(=O)NCC(O)CN (stereo not shown) [Example 334, N-(3-amino-2-hydroxypropyl)-4-[[3-(2,3-difluoro-4-methoxyphenyl)imidazo[1,2-a]pyrazin-8-yl]amino]-2-ethylbenzamide] here?
Answer: 0.35 µM

Question: With CCc1cc(Nc2nccn3c(-c4ccc(OC(F)F)c(F)c4F)cnc23)ccc1C(=O)NC(C)(C)CCN [Example 100, N-(4-amino-2-methylbutan-2-yl)-4-((3-(4-(difluoromethoxy)-2,3-difluorophenyl)imidazo [1,2-a]pyrazin-8-yl)amino)-2-ethylbenzamide hydrochloride] as the molecule, how does the IC90 read?
Answer: 0.35 µM

Question: How did the IC90 turn out when CCc1cc(Nc2nccn3c(-c4ccc(OC(F)F)c(F)c4F)cnc23)ccc1C(=O)NCCC(=O)N1CCNCC1 [Example 542, 4-((3-(4-(difluoromethoxy)-2,3-difluorophenyl)imidazo[1,2-a]pyrazin-8-yl)amino)-2-ethyl-N-(3-oxo-3-(piperazin-1-yl)propyl)benzamide 2,2,2-trifluoroacetate] was run?
Answer: 0.054 µM

Question: With Cc1cc(Nc2nccn3c(-c4ccc(OC(F)F)cc4)cnc23)ccc1C(=O)N(C)CCN1CCOCC1 [Example 250, 4-[[3-[4-(difluoromethoxy)phenyl]im-idazo[1,2-a]pyrazin-8-yl]amino]-N,2-dimethyl-N-(2-morpholin-4-ylethyl)benzamide] as the molecule, how does the IC90 read?
Answer: 1.2 µM

Question: CCc1cc(Nc2nccn3c(-c4ccc(OC)c(F)c4F)cnc23)ccc1C(=O)NCCCNC(=O)CN [Example 103, N-(3-(2-aminoacetamido)propyl)-4-((3-(2,3-difluoro-4-methoxyphenyl)imidazo [1,2-a]pyrazin-8-yl)amino)-2-ethylbenzamide hydrochloride] was tested. Which IC90 did it give?
Answer: 0.08 µM

Question: How did the IC90 turn out when Cc1cc(Nc2nccn3c(-c4ccc(OCC#CCN)cc4)cnc23)ccc1C(=O)N(C)CCC1CCN(C)CC1 [Example 319, 4-[[3-[4-(4-aminobut-2-ynoxy)phenyl]imidazo[1,2-a]pyrazin-8-yl]amino]-N,2-dimethyl-N-[2-(1-methylpiperidin-4-yl)ethyl]benzamide;formic acid] was run?
Answer: 3.3 µM

Question: For Cc1cc(Nc2nccn3c(-c4ccc(OC(F)F)cc4)cnc23)ccc1C(=O)NC(C)(C)CN1CCOCC1 [Example 222, 4-[[3-[4-(difluoromethoxy)phenyl]im-idazo[1,2-a]pyrazin-8-yl]amino]-2-methyl-N-(2-methyl-1-morpholin-4-ylpropan-2-yl)benzamide], which IC90 is on record?
Answer: 1.1 µM

Same assay, conditions: Acinetobacter baumannii, ATCC17978, 16 h, read-out: ATCC17978 IC90 [μM]

Question: Which IC90 does the source give for CCOP(=O)(OCC)N1CCC(CCN(C)C(=O)c2ccc(Nc3nccn4c(-c5ccc(OC(F)F)cc5)cnc34)cc2C)CC1 [Example 115, N-[2-(1-diethoxyphosphoryl-4-piperidyl)ethyl]-4-[[3-[4-(difluoromethoxy)phenyl]imidazo[1,2-a]pyrazin-8-yl]amino]-N,2-dimethyl-benzamide] here?
Answer: 0.85 µM
